Results taken from PubChem BioAssay AID1259407 (Chemical Carcinogenesis Research Information System (CCRIS), 2018).
Calls of active or inactive are those of the source. No rule for the calls is given here.

Tested on: CCRIS mutagenicity, Ames/micronucleus/aberration tests
Experiment: CCRIS mutagenicity studies
[1] = Test System: AMES SALMONELLA TYPHIMURIUM, Strain/Indicator: TA98, Metabolic Activation: NONE, Method: STANDARD PLATE
[2] = Test System: AMES SALMONELLA TYPHIMURIUM, Strain/Indicator: TA100, Metabolic Activation: NONE, Method: STANDARD PLATE
[3] = Test System: AMES SALMONELLA TYPHIMURIUM, Strain/Indicator: TA100, Metabolic Activation: RAT, LIVER, S-9, AROCLOR 1254, Method: PREINCUBATION
[4] = Test System: AMES SALMONELLA TYPHIMURIUM, Strain/Indicator: TA1535, Metabolic Activation: NONE, Method: STANDARD PLATE
[5] = Test System: AMES SALMONELLA TYPHIMURIUM, Strain/Indicator: TA1537, Metabolic Activation: NONE, Method: STANDARD PLATE

Measured: mutagenic call

Cc1c(N(C)CS(=O)(=O)O)c(=O)n(-c2ccccc2)n1C
active: Test System: AMES SALMONELLA TYPHIMURIUM, Strain/Indicator: TA97A, Metabolic Activation: RAT LIVER S-9, PHENOBARBITAL, Method: STANDARD PLATE active; positive | Test System: AMES SALMONELLA TYPHIMURIUM, Strain/Indicator: TA98, Metabolic Activation: RAT LIVER S-9, PHENOBARBITAL, Method: STANDARD PLATE active; positive | [3] active; positive | Test System: AMES SALMONELLA TYPHIMURIUM, Strain/Indicator: TA100, Metabolic Activation: RAT, LIVER, S-9, PCB, Method: PREINCUBATION active; positive
inactive: Test System: AMES SALMONELLA TYPHIMURIUM, Strain/Indicator: TA97A, Metabolic Activation: NONE, Method: STANDARD PLATE inactive; negative | Test System: AMES SALMONELLA TYPHIMURIUM, Strain/Indicator: TA98, Metabolic Activation: GUINEA PIG, LIVER, S-9, PCB, Method: PREINCUBATION inactive; negative | Test System: AMES SALMONELLA TYPHIMURIUM, Strain/Indicator: TA98, Metabolic Activation: HAMSTER, LIVER, S-9, PCB, Method: PREINCUBATION inactive; negative | Test System: AMES SALMONELLA TYPHIMURIUM, Strain/Indicator: TA98, Metabolic Activation: MOUSE, LIVER, S-9, PCB, Method: PREINCUBATION inactive; negative | [1] inactive; negative | Test System: AMES SALMONELLA TYPHIMURIUM, Strain/Indicator: TA98, Metabolic Activation: RAT, LIVER, S-9, PCB, Method: PREINCUBATION inactive; negative | Test System: AMES SALMONELLA TYPHIMURIUM, Strain/Indicator: TA100, Metabolic Activation: GUINEA PIG, LIVER, S-9, PCB, Method: PREINCUBATION inactive; negative | Test System: AMES SALMONELLA TYPHIMURIUM, Strain/Indicator: TA100, Metabolic Activation: HAMSTER, LIVER, S-9, PCB, Method: PREINCUBATION inactive; negative | Test System: AMES SALMONELLA TYPHIMURIUM, Strain/Indicator: TA100, Metabolic Activation: MOUSE, LIVER, S-9, PCB, Method: PREINCUBATION inactive; negative | [2] inactive; negative | Test System: AMES SALMONELLA TYPHIMURIUM, Strain/Indicator: TA100, Metabolic Activation: RAT LIVER S-9, PHENOBARBITAL, Method: STANDARD PLATE inactive; negative | Test System: AMES SALMONELLA TYPHIMURIUM, Strain/Indicator: TA102, Metabolic Activation: NONE, Method: STANDARD PLATE inactive; negative | Test System: AMES SALMONELLA TYPHIMURIUM, Strain/Indicator: TA102, Metabolic Activation: RAT LIVER S-9, PHENOBARBITAL, Method: STANDARD PLATE inactive; negative

Fc1ccc2c3c(ccc2c1)-c1cccc2cccc-3c12
active: Test System: AMES SALMONELLA TYPHIMURIUM, Strain/Indicator: TA97A, Metabolic Activation: RAT, LIVER, S-9, AROCLOR 1254, Method: PREINCUBATION active; positive | Test System: AMES SALMONELLA TYPHIMURIUM, Strain/Indicator: TA98, Metabolic Activation: RAT, LIVER, S-9, AROCLOR 1254, Method: PREINCUBATION active; positive | [3] active; positive

O=c1c2cc(O)ccc2oc2cc(O)cc(O)c12
active: Test System: AMES SALMONELLA TYPHIMURIUM, Strain/Indicator: TA97, Metabolic Activation: RAT, LIVER, S-9, PHENOBARBITAL AND 5,6-BENZOFLAVONE, Method: PREINCUBATION active; positive | Test System: AMES SALMONELLA TYPHIMURIUM, Strain/Indicator: TA100, Metabolic Activation: RAT, LIVER, S-9, PHENOBARBITAL AND 5,6-BENZOFLAVONE, Method: PREINCUBATION active; positive | Test System: AMES SALMONELLA TYPHIMURIUM, Strain/Indicator: TA2637, Metabolic Activation: RAT, LIVER, S-9, PHENOBARBITAL AND 5,6-BENZOFLAVONE, Method: PREINCUBATION active; positive
inactive: Test System: AMES SALMONELLA TYPHIMURIUM, Strain/Indicator: TA98, Metabolic Activation: RAT, LIVER, S-9, PHENOBARBITAL AND 5,6-BENZOFLAVONE, Method: PREINCUBATION inactive; negative

c1ccc2c(c1)CCCC2
active: Test System: MOUSE LYMPHOMA, Strain/Indicator: L5178Y (TK+/TK-), Metabolic Activation: RAT, LIVER, S-9, AROCLOR 1254, Method: SUSPENSION/PLATE active; positive. reevaluation of results: equivocal
inactive: Test System: AMES SALMONELLA TYPHIMURIUM, Strain/Indicator: TA98, Metabolic Activation: HAMSTER, LIVER, S-9, AROCLOR 1254, Method: STANDARD PLATE inactive; negative | [1] inactive; negative | Test System: AMES SALMONELLA TYPHIMURIUM, Strain/Indicator: TA98, Metabolic Activation: RAT, LIVER, S-9, AROCLOR 1254, Method: STANDARD PLATE inactive; negative | Test System: AMES SALMONELLA TYPHIMURIUM, Strain/Indicator: TA100, Metabolic Activation: HAMSTER, LIVER, S-9, AROCLOR 1254, Method: STANDARD PLATE inactive; negative | [2] inactive; negative | Test System: AMES SALMONELLA TYPHIMURIUM, Strain/Indicator: TA100, Metabolic Activation: RAT, LIVER, S-9, AROCLOR 1254, Method: STANDARD PLATE inactive; negative | Test System: AMES SALMONELLA TYPHIMURIUM, Strain/Indicator: TA1535, Metabolic Activation: HAMSTER, LIVER, S-9, AROCLOR 1254, Method: STANDARD PLATE inactive; negative | [4] inactive; negative | Test System: AMES SALMONELLA TYPHIMURIUM, Strain/Indicator: TA1535, Metabolic Activation: RAT, LIVER, S-9, AROCLOR 1254, Method: STANDARD PLATE inactive; negative | Test System: AMES SALMONELLA TYPHIMURIUM, Strain/Indicator: TA1537, Metabolic Activation: HAMSTER, LIVER, S-9, AROCLOR 1254, Method: STANDARD PLATE inactive; negative | [5] inactive; negative | Test System: AMES SALMONELLA TYPHIMURIUM, Strain/Indicator: TA1537, Metabolic Activation: RAT, LIVER, S-9, AROCLOR 1254, Method: STANDARD PLATE inactive; negative | Test System: AMES SALMONELLA TYPHIMURIUM, Strain/Indicator: TA1538, Metabolic Activation: HAMSTER, LIVER, S-9, AROCLOR 1254, Method: STANDARD PLATE inactive; negative | Test System: AMES SALMONELLA TYPHIMURIUM, Strain/Indicator: TA1538, Metabolic Activation: NONE, Method: STANDARD PLATE inactive; negative | Test System: AMES SALMONELLA TYPHIMURIUM, Strain/Indicator: TA1538, Metabolic Activation: RAT, LIVER, S-9, AROCLOR 1254, Method: STANDARD PLATE inactive; negative

Nc1ccc2c(=O)[nH]sc2c1
inactive: [1] inactive; negative | Test System: AMES SALMONELLA TYPHIMURIUM, Strain/Indicator: TA98, Metabolic Activation: S-9, Method: STANDARD PLATE inactive; negative | [2] inactive; negative | Test System: AMES SALMONELLA TYPHIMURIUM, Strain/Indicator: TA100, Metabolic Activation: S-9, Method: STANDARD PLATE inactive; negative | [4] inactive; negative | Test System: AMES SALMONELLA TYPHIMURIUM, Strain/Indicator: TA1535, Metabolic Activation: S-9, Method: STANDARD PLATE inactive; negative | [5] inactive; negative | Test System: AMES SALMONELLA TYPHIMURIUM, Strain/Indicator: TA1537, Metabolic Activation: S-9, Method: STANDARD PLATE inactive; negative
